Columns and labels:
[1] = Cytotoxicity in human HuH7 cells assessed as inhibition of cell growth at 3 uM incubated for 72 hrs by CCK8 assay relative to control; type: cell-based, Huh-7; conditions: read-out: GI
[2] = Protein binding in rat plasma; type: ADME, cell-free; conditions: read-out: PPB
[3] = Cytotoxicity in human HepG2 cells assessed as inhibition of cell growth at 10 uM incubated for 72 hrs by CCK8 assay relative to control; type: cell-based; conditions: read-out: GI
[4] = Cmax in rat at 100 mg/kg, po measured up to 24 hrs by LC-MS/MS analysis; type: ADME, organism-based; parameters: dose 100 mg/kg, route oral; conditions: in vivo
[5] = Drug metabolism in human liver microsomes assessed as metabolic rate at 1 uM preincubated for 5 mins before NADPH addition and measured up to 30 mins by LC-MS/MS analysis; type: ADME, Microsome; conditions: 0.5 h
[6] = Volume of distribution at steady state in beagle dog at 1 mg/kg, iv measured up to 24 hrs by LC-MS/MS analysis; type: ADME, organism-based, Canis lupus familiaris; conditions: in vivo, read-out: Vdss
[7] = Cmax in rat at 30 mg/kg, po measured up to 24 hrs by LC-MS/MS analysis; type: ADME, organism-based; parameters: dose 30 mg/kg, route oral; conditions: in vivo
[8] = Cytotoxicity in human HEK293 cells assessed as inhibition of cell growth at 10 uM incubated for 72 hrs by CCK8 assay relative to control; type: cell-based; conditions: read-out: GI
[9] = AUC (last) in rat at 10 mg/kg, po measured up to 24 hrs by LC-MS/MS analysis; type: ADME, organism-based; parameters: dose 10 mg/kg, time 0 - last, route oral; conditions: in vivo
[10] = AUC (last) in rat at 100 mg/kg, po measured up to 24 hrs by LC-MS/MS analysis; type: ADME, organism-based; parameters: dose 100 mg/kg, time 0 - last, route oral; conditions: in vivo
[11] = Oral bioavailability in beagle dog at 10 mg/kg measured up to 24 hrs by LC-MS/MS analysis; type: ADME, organism-based, Canis lupus familiaris; conditions: in vivo
[12] = Half life in beagle dog at 1 mg/kg, iv measured up to 24 hrs by LC-MS/MS analysis; type: ADME, organism-based, Canis lupus familiaris; conditions: in vivo
[13] = target: CYP3A4 (Homo sapiens, UniProt P08684); assay: Inhibition of CYP3A4 in pooled human liver microsomes at 10 uM pre-incubated for 5 mins before NADPH addition and measured after 10 mins by UPLC-MS/MS analysis relative to control; type: ADME
[14] = AUC(last) in beagle dog at 1 mg/kg, iv measured up to 24 hrs by LC-MS/MS analysis; type: ADME, organism-based, Canis lupus familiaris; parameters: dose 1 mg/kg, route intravenous, time 0 - last; conditions: in vivo
[15] = Ratio of dug level in liver to plasma of Wistar rat at 10 mg/kg, po measured at 4 hrs by LC-MS/MS analysis; type: ADME, organism-based
[16] = target: CYP2D6 (Homo sapiens, UniProt P10635); assay: Inhibition of CYP2D6 in pooled human liver microsomes at 10 uM pre-incubated for 5 mins before NADPH addition and measured after 10 mins by UPLC-MS/MS analysis relative to control; type: ADME
[17] = Cytotoxicity in human HEK293 cells assessed as inhibition of cell growth at 3 uM incubated for 72 hrs by CCK8 assay relative to control; type: cell-based; conditions: read-out: GI
[18] = Toxicity in beagle dog assessed as induction of emesis at 10 mg/kg measured up to 24 hrs; type: organism-based, Canis lupus familiaris; conditions: in vivo
[19] = Protein binding in human plasma; type: ADME, cell-free; conditions: read-out: PPB
[20] = AUC (last) in rat at 30 mg/kg, po measured up to 24 hrs by LC-MS/MS analysis; type: ADME, organism-based; parameters: dose 30 mg/kg, time 0 - last, route oral; conditions: in vivo
[21] = target: CYP2C9 (Homo sapiens, UniProt P11712); assay: Inhibition of CYP2C9 in pooled human liver microsomes at 10 uM pre-incubated for 5 mins before NADPH addition and measured after 10 mins by UPLC-MS/MS analysis relative to control; type: ADME
[22] = Cmax in rat at 10 mg/kg, po measured up to 24 hrs by LC-MS/MS analysis; type: ADME, organism-based; parameters: dose 10 mg/kg, route oral; conditions: in vivo
[23] = Volume of distribution at steady state in rat at 1 mg/kg, iv measured up to 24 hrs by LC-MS/MS analysis; type: ADME, organism-based; conditions: in vivo, read-out: Vdss
[24] = Drug level in plasma of Wistar rat at 10 mg/kg, po measured at 4 hrs by LC-MS/MS analysis; type: ADME, organism-based
[25] = Oral bioavailability in rat at 10 mg/kg measured up to 24 hrs by LC-MS/MS analysis; type: ADME, organism-based; conditions: in vivo
[26] = AUC (last) in beagle dog at 10 mg/kg, po measured up to 24 hrs by LC-MS/MS analysis; type: ADME, organism-based, Canis lupus familiaris; parameters: dose 10 mg/kg, time 0 - last, route oral; conditions: in vivo
[27] = Half life in rat at 1 mg/kg, iv measured up to 24 hrs by LC-MS/MS analysis; type: ADME, organism-based; conditions: in vivo
[28] = Drug level in liver of Wistar rat at 10 mg/kg, po measured up to 8 hrs by LC-MS/MS analysis; type: ADME, organism-based; conditions: in vivo
[29] = Tmax in rat at 10 mg/kg, po measured up to 24 hrs by LC-MS/MS analysis; type: ADME, organism-based; conditions: in vivo
[30] = Cmax in beagle dog at 10 mg/kg, po measured up to 24 hrs by LC-MS/MS analysis; type: ADME, organism-based, Canis lupus familiaris; parameters: dose 10 mg/kg, route oral; conditions: in vivo
[31] = AUC(last) in rat at 1 mg/kg, iv measured up to 24 hrs by LC-MS/MS analysis; type: ADME, organism-based; parameters: dose 1 mg/kg, route intravenous, time 0 - last; conditions: in vivo
[32] = Drug level in liver of Wistar rat at 10 mg/kg, po measured at 4 hrs by LC-MS/MS analysis; type: ADME, organism-based; conditions: read-out: Drug uptake
[33] = Drug metabolism in rat liver microsomes assessed as metabolic rate at 1 uM preincubated for 5 mins before NADPH addition and measured up to 30 mins by LC-MS/MS analysis; type: ADME, Microsome; conditions: 0.5 h
[34] = Cytotoxicity in human HepG2 cells assessed as inhibition of cell growth at 3 uM incubated for 72 hrs by CCK8 assay relative to control; type: cell-based; conditions: read-out: GI
[35] = Clearance in rat at 1 mg/kg, iv measured up to 24 hrs by LC-MS/MS analysis; type: ADME, organism-based; conditions: in vivo
[36] = Clearance in beagle dog at 1 mg/kg, iv measured up to 24 hrs by LC-MS/MS analysis; type: ADME, organism-based, Canis lupus familiaris; conditions: in vivo
[37] = Tmax in rat at 30 mg/kg, po measured up to 24 hrs by LC-MS/MS analysis; type: ADME, organism-based; conditions: in vivo
[38] = Tmax in rat at 100 mg/kg, po measured up to 24 hrs by LC-MS/MS analysis; type: ADME, organism-based; conditions: in vivo

CYP3A4, sequence (P08684 whole entry): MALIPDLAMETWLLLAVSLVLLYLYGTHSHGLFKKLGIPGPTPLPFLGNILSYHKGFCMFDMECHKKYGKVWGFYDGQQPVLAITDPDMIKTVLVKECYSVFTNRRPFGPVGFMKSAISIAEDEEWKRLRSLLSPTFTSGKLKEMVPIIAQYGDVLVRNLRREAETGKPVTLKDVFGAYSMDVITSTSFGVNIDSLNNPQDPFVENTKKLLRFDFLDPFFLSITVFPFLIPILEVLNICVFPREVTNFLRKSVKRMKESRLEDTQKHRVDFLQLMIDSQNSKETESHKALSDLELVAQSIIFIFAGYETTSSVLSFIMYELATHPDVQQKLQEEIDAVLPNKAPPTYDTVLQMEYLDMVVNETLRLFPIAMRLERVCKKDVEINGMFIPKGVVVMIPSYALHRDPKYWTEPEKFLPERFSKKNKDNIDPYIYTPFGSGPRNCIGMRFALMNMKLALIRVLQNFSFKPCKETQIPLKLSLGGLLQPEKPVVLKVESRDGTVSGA
CYP2D6, sequence (P10635 whole entry): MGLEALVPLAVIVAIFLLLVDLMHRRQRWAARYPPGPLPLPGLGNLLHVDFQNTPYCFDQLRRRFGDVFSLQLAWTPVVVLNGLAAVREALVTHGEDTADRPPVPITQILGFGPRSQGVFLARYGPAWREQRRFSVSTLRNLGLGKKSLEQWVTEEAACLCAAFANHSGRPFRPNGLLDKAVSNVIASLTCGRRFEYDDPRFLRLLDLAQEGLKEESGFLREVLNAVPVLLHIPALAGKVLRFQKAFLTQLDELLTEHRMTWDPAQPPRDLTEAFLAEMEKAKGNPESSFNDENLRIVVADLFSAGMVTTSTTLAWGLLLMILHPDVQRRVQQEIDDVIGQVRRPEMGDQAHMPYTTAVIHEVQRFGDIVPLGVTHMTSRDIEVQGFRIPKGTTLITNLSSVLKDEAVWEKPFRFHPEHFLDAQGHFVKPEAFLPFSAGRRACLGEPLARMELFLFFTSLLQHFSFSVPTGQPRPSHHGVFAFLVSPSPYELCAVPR
CYP2C9, sequence (P11712 whole entry): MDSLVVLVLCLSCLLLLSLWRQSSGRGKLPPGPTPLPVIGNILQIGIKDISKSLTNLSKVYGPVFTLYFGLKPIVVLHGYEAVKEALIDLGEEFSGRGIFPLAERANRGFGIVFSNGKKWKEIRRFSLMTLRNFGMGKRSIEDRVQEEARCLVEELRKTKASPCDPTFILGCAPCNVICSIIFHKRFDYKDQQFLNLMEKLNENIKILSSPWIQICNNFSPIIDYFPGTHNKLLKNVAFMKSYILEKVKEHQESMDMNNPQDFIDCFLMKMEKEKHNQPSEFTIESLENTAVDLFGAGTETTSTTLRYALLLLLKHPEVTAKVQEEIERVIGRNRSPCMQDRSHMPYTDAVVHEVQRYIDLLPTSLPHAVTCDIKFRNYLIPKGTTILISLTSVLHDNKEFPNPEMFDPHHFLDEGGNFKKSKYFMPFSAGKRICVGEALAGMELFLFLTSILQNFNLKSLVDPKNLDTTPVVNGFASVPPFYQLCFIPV

In the case of `COC(=O)N[C@H](C(=O)N1CCC[C@H]1c1ncc(-c2ccc3c(c2)CCc2cc(-c4cnc([C@@H]5CCCN5C(=O)[C@@H](NC(=O)OC)C(C)C)[nH]4)sc2-3)[nH]1)C(C)C`, the inhibition at 72 h, 3 µM [1] is reported as 2%, the fraction unbound [2] is reported as < 0.01 and the inhibition at 72 h, 10 µM [3] is reported as 6%. For the same compound, the Cmax [4] was 43 µM, the Drug metabolism [5] was 0.01 nmol/min/mg and the Vd [6] was 1 L/kg. It also gave a Cmax [7] of 14 µM, an inhibition at 72 h, 10 µM [8] of 28% and an AUC(0-t) at 24 h [9] of 6 to 24 µM·h. It also gave an AUC(0-t) at 24 h [10] of 468 µM·h, a bioavailability [11] of 37 to 100% and a half-life [12] of 4 h. The inhibition at 10 min, 10 µM [13] was 56%, the AUC(0-t) at 24 h [14] was 4 µM·h and the Kp at 4 h [15] was 6. For the same compound, the inhibition at 10 min, 10 µM [16] was 36%, the inhibition at 72 h, 3 µM [17] was 2% and the Activity [18] was “Toxic”. For the same compound, the fraction unbound [19] was < 0.01, the AUC(0-t) at 24 h [20] was 77 µM·h and the inhibition at 10 min, 10 µM [21] was 35%. It also gave a Cmax [22] of 1.6 to 6 µM, a Vd [23] of 1.1 L/kg and a concentration at 4 h [24] of 1.25 µM. It also gave a bioavailability [25] of 30%, an AUC(0-t) at 24 h [26] of 11 to 93 µM·h and a half-life [27] of 1.5 h. The Drug uptake [28] was “Active”, the Tmax [29] was 0.25 to 2 h and the Cmax [30] was 6 µM. The AUC(0-t) at 24 h [31] was 2 µM·h, the concentration at 4 h [32] was 7.4 µM and the Drug metabolism [33] was 0.01 nmol/min/mg. The inhibition at 72 h, 3 µM [34] was 0%, the clearance [35] was 10 mL/min/kg and the clearance [36] was 5 mL/min/kg. The Tmax [37] was 1 to 4 h and the Tmax [38] was 2 to 4 h.
